Data reported in US8916599B2, “1H-benz imidazole-5-carboxamides as anti-inflammatory agents” (Orexo AB, priority 2008, dated 2014).

Each molecule was assayed against T1, recombinant human mPGES-1 (Homo sapiens, UniProt O14684) (assay: mPGES-1 inhibition test (microsomes, PGH2 substrate, HTRF detection of PGE2)). Details: inhibition of mPGES-1 at 10 μM.
T1 construct: made in house; host or cells: Rosetta E. coli (microsomal/membrane fraction)
T1 sequence (O14684 1-152): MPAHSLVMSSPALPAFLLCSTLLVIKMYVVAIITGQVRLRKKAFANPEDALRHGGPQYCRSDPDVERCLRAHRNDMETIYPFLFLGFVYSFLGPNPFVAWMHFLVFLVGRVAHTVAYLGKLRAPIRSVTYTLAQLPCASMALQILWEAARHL
Format: biochemical
Summary of the method: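 E. coli microsomal enzyme, 0.1 M KPi pH 7.4 + 2.5 mM GSH; cpd (DMSO) 25 min RT; PGH2 1 min; acidic FeCl2 stop. Dilute 750-fold, HTRF (d2/Eu-cryptate anti-PGE2, overnight 4 °C), 665/620 ratio vs PGE2 standard curve.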

| SMILES | inhibition at 10 µM |
| --- | --- |
| CS(=O)(=O)NCCCn1c(Nc2c(Cl)cccc2Cl)nc2cc(C(=O)Nc3cc(Cl)ccn3)ccc21 [Example 206, 2-(2,6-Dichloro-phenylamino)-1-(3-methanesulfonylamino-propyl)-1H-benzimidazole-5-carboxylic acid (4-chloro-pyridin-2-yl)-amide] | 100% |
| O=C(Nc1cc(Cl)ccn1)c1ccc2c(c1)nc(Nc1c(Cl)cccc1Cl)n2C1CNC1 [Example 207, 2-(2,6-Dichloro-phenylamino)-1-azetidin-3-yl-1H-benzimidazole-5-carboxylic acid (4-chloro-pyridin-2-yl)-amide(trifluoro-acetate)] | 97% |
| NCCCn1c(Nc2c(Cl)cccc2Cl)nc2cc(C(=O)Nc3cc(Cl)ccn3)ccc21 [Example 208, 2-(2,6-Dichloro-phenylamino)-1-(3-amino-propyl)-1H-benzimidazole-5-carboxylic acid (4-chloro-pyridin-2-yl)-amide(trifluoro-acetate)] | 100% |
| O=C(Nc1cc(Cl)ccn1)c1ccc2c(c1)nc(Nc1c(Cl)cccc1Cl)n2CC1CNC1 [Example 209, 2-(2,6-Dichloro-phenylamino)-(1-azetidin-3-ylmethyl)-1H-benzimidazole-5-carboxylic acid (4-chloro-pyridin-2-yl)-amide (trifluoroacetate)] | 100% |
| Cn1c(Nc2c(Cl)cccc2Cl)nc2cc(C(=O)Nc3cc(Cl)ccn3)ccc21 [Example 210, 2-(2,6-Dichloro-phenylamino)-1-methyl-1H-benzimidazole-5-carboxylic acid (4-chloro-pyridin-2-yl)-amide] | 100% |
| NCCn1c(Nc2c(Cl)cccc2Cl)nc2cc(C(=O)Nc3cc(Cl)ccn3)ccc21 [Example 211, 2-(2,6-Dichloro-phenylamino)-1-(2-amino-ethyl)-1H-benzimidazole-5-carboxylic acid (4-chloro-pyridin-2-yl)-amide (trifluoroacetate)] | 100% |
| CNCCn1c(Nc2c(Cl)cccc2Cl)nc2cc(C(=O)Nc3cc(Cl)ccn3)ccc21 [Example 212, 2-(2,6-Dichloro-phenylamino)-1-(2-methylamino-ethyl)-1H-benzimidazole-5-carboxylic acid (4-chloro-pyridin-2-yl)-amide (trifluoroacetate)] | 100% |
| O=C(NC1CCCCCC1)c1ccc2[nH]c(Nc3c(Cl)cccc3Cl)nc2c1 [Example 214, 2-(2,6-Dichloro-phenylamino)-1H-benzimidazole-5-carboxylic acid cycloheptyl-amide] | 100% |
| CC1CCC(NC(=O)c2ccc3[nH]c(Nc4c(Cl)cccc4Cl)nc3c2)CC1 (stereo not drawn) [Example 215, 2-(2,6-Dichloro-phenylamino)-1H-benzimidazole-5-carboxylic acid (4-methyl-cyclohexyl)-amide] | 96% |
| CO[C@H]1CC[C@H](NC(=O)c2ccc3[nH]c(Nc4c(Cl)cccc4Cl)nc3c2)CC1 [Example 216, 2-(2,6-Dichloro-phenylamino)-1H-benzimidazole-5-carboxylic acid ((1R,4R)-4-methoxy-cyclohexyl)-amide] | 64% |
| O=C(NCC1CCOCC1)c1ccc2[nH]c(Nc3c(Cl)cccc3Cl)nc2c1 [Example 217, 2-(2,6-Dichloro-phenylamino)-1H-benzimidazole-5-carboxylic acid (tetrahydro-pyran-4-ylmethyl)-amide] | 54% |
| CC1CC(NC(=O)c2ccc3[nH]c(Nc4c(Cl)cccc4Cl)nc3c2)CC(C)(C)C1 (stereo not drawn) [Example 218, 2-(2,6-Dichloro-phenylamino)-1H-benzimidazole-5-carboxylic acid (3,3,5-trimethyl-cyclohexyl)-amide] | 100% |
| O=C(NCC1CCCC1)c1ccc2[nH]c(Nc3c(Cl)cccc3Cl)nc2c1 [Example 219, 2-(2,6-Dichloro-phenylamino)-1H-benzimidazole-5-carboxylic acid cyclopentylmethyl-amide] | 100% |
| O=C(NCc1ncccc1C(F)(F)F)c1ccc2[nH]c(Nc3c(Cl)cccc3Cl)nc2c1 [Example 220, 2-(2,6-Dichloro-phenylamino)-1H-benzimidazole-5-carboxylic acid (3-trifluoromethyl-pyridin-2-ylmethyl)-amide] | 96% |
| O=C(NCc1cc(C(F)(F)F)ccn1)c1ccc2[nH]c(Nc3c(Cl)cccc3Cl)nc2c1 [Example 221, 2-(2,6-Dichloro-phenylamino)-1H-benzimidazole-5-carboxylic acid (4-trifluoromethyl-pyridin-2-ylmethyl)-amide] | 87% |
| O=C(NCc1ccc(C(F)(F)F)cn1)c1ccc2[nH]c(Nc3c(Cl)cccc3Cl)nc2c1 [Example 222, 2-(2,6-Dichloro-phenylamino)-1H-benzimidazole-5-carboxylic acid (5-trifluoromethyl-pyridin-2-ylmethyl)-amide] | 74% |
| O=C(NCc1cccc(C(F)(F)F)n1)c1ccc2[nH]c(Nc3c(Cl)cccc3Cl)nc2c1 [Example 223, 2-(2,6-Dichloro-phenylamino)-1H-benzimidazole-5-carboxylic acid (6-trifluoromethyl-pyridin-2-ylmethyl)-amide] | 87% |

| SMILES | inhibition at 10 µM |
| --- | --- |
| CS(=O)(=O)c1cccc(NC(=O)c2ccc3[nH]c(Nc4c(Cl)cccc4Cl)nc3c2)c1 [Example 224, 2-(2,6-Dichloro-phenylamino)-1H-benzimidazole-5-carboxylic acid (3-methanesulfonyl-phenyl)-amide] | 100% |
| O=C(NC1CCC(F)(F)CC1)c1ccc2[nH]c(Nc3c(Cl)cccc3Cl)nc2c1 [Example 225, 2-(2,6-Dichloro-phenylamino)-1H-benzimidazole-5-carboxylic acid (4,4-difluoro-cyclohexyl)-amide] | 80% |
| O=C(NC1CCCC(O)C1)c1ccc2[nH]c(Nc3c(Cl)cccc3Cl)nc2c1 (stereo not drawn) [Example 226, 2-(2,6-Dichloro-phenylamino)-1H-benzimidazole-5-carboxylic acid (3-hydroxy-cyclohexyl)-amide] | 64% |
| O=C(NCC1CCCOC1)c1ccc2[nH]c(Nc3c(Cl)cccc3Cl)nc2c1 (stereo not drawn) [Example 227, 2-(2,6-Dichloro-phenylamino)-1H-benzimidazole-5-carboxylic acid (tetrahydro-pyran-3-ylmethyl)-amide] | 77% |
| O=C(NC1CCCCC1C(F)(F)F)c1ccc2[nH]c(Nc3c(Cl)cccc3Cl)nc2c1 (stereo not drawn) [Example 228, 2-(2,6-Dichloro-phenylamino)-1H-benzimidazole-5-carboxylic acid (2-trifluoromethyl-cyclohexyl)-amide] | 86% |
| O=C(NC1CCCC(C(F)(F)F)C1)c1ccc2[nH]c(Nc3c(Cl)cccc3Cl)nc2c1 (stereo not drawn) [Example 229, 2-(2,6-Dichloro-phenylamino)-1H-benzimidazole-5-carboxylic acid (3-trifluoromethyl-cyclohexyl)-amide] | 91% |
| O=C(NC1CCC(C(F)(F)F)CC1)c1ccc2[nH]c(Nc3c(Cl)cccc3Cl)nc2c1 (stereo not drawn) [Example 230, 2-(2,6-Dichloro-phenylamino)-1H-benzimidazole-5-carboxylic acid (4-trifluoromethyl-cyclohexyl)-amide] | 99% |
| N#CC1(NC(=O)c2ccc3[nH]c(Nc4c(Cl)cccc4Cl)nc3c2)CCCCC1 [Example 231, 2-(2,6-Dichloro-phenylamino)-1H-benzimidazole-5-carboxylic acid (1-cyano-cyclohexyl)-amide] | 86% |
| O=C(NCCc1cccnc1)c1ccc2[nH]c(Nc3c(Cl)cccc3Cl)nc2c1 [Example 232, 2-(2,6-Dichloro-phenylamino)-1H-benzimidazole-5-carboxylic acid (2-pyridin-3-yl-ethyl)-amide] | 91% |
| O=C(NCCc1ccncc1)c1ccc2[nH]c(Nc3c(Cl)cccc3Cl)nc2c1 [Example 233, 2-(2,6-Dichloro-phenylamino)-1H-benzimidazole-5-carboxylic acid (2-pyridin-4-yl-ethyl)-amide] | 67% |
| O=C(NCC1CCCO1)c1ccc2[nH]c(Nc3c(Cl)cccc3Cl)nc2c1 (stereo not drawn) [Example 234, 2-(2,6-Dichloro-phenylamino)-1H-benzimidazole-5-carboxylic acid (tetrahydro-furan-2-ylmethyl)-amide] | 77% |
| O=C(NCc1ccccn1)c1ccc2[nH]c(Nc3c(Cl)cccc3Cl)nc2c1 [Example 235, 2-(2,6-Dichloro-phenylamino)-1H-benzimidazole-5-carboxylic acid (pyridin-2-ylmethyl)-amide] | 79% |
| O=C(NCc1ccncc1)c1ccc2[nH]c(Nc3c(Cl)cccc3Cl)nc2c1 [Example 236, 2-(2,6-Dichloro-phenylamino)-1H-benzimidazole-5-carboxylic acid (pyridin-4-ylmethyl)-amide] | 83% |
| Cn1c(Nc2c(Cl)cccc2Cl)nc2cc(C(=O)NC3CCCCC3O)ccc21 (stereo not drawn) [Example 237, 2-(2,6-Dichloro-phenylamino)-1-methyl-1H-benzimidazole-5-carboxylic acid (2-hydroxy-cyclohexyl)-amide] | 87% |
| Cn1c(Nc2c(Cl)cccc2Cl)nc2cc(C(=O)NC3CCCCCC3)ccc21 [Example 238, 2-(2,6-Dichloro-phenylamino)-1-methyl-1H-benzimidazole-5-carboxylic acid cycloheptylamide] | 100% |
| CC1CCC(NC(=O)c2ccc3c(c2)nc(Nc2c(Cl)cccc2Cl)n3C)CC1 (stereo not drawn) [Example 239, 2-(2,6-Dichloro-phenylamino)-1-methyl-1H-benzimidazole-5-carboxylic acid (4-methyl-cyclohexyl)-amide] | 96% |
